Measurements taken from patent publication US20240083897A1, “GCN2 MODULATING COMPOUNDS AND USES THEREOF” (HiberCell, Inc., priority 2021, published 2024).

Biological target: GCN2 (Homo sapiens (Human), UniProt Q9P2K8)
Test: TR-FRET biochemical assay for inhibition of GCN2
Details: GCN2 2 nM, 100 nM GFP-eIF2a, 150 μM ATP, TR-FRET

Chain of GCN2 (Q9P2K8 whole entry): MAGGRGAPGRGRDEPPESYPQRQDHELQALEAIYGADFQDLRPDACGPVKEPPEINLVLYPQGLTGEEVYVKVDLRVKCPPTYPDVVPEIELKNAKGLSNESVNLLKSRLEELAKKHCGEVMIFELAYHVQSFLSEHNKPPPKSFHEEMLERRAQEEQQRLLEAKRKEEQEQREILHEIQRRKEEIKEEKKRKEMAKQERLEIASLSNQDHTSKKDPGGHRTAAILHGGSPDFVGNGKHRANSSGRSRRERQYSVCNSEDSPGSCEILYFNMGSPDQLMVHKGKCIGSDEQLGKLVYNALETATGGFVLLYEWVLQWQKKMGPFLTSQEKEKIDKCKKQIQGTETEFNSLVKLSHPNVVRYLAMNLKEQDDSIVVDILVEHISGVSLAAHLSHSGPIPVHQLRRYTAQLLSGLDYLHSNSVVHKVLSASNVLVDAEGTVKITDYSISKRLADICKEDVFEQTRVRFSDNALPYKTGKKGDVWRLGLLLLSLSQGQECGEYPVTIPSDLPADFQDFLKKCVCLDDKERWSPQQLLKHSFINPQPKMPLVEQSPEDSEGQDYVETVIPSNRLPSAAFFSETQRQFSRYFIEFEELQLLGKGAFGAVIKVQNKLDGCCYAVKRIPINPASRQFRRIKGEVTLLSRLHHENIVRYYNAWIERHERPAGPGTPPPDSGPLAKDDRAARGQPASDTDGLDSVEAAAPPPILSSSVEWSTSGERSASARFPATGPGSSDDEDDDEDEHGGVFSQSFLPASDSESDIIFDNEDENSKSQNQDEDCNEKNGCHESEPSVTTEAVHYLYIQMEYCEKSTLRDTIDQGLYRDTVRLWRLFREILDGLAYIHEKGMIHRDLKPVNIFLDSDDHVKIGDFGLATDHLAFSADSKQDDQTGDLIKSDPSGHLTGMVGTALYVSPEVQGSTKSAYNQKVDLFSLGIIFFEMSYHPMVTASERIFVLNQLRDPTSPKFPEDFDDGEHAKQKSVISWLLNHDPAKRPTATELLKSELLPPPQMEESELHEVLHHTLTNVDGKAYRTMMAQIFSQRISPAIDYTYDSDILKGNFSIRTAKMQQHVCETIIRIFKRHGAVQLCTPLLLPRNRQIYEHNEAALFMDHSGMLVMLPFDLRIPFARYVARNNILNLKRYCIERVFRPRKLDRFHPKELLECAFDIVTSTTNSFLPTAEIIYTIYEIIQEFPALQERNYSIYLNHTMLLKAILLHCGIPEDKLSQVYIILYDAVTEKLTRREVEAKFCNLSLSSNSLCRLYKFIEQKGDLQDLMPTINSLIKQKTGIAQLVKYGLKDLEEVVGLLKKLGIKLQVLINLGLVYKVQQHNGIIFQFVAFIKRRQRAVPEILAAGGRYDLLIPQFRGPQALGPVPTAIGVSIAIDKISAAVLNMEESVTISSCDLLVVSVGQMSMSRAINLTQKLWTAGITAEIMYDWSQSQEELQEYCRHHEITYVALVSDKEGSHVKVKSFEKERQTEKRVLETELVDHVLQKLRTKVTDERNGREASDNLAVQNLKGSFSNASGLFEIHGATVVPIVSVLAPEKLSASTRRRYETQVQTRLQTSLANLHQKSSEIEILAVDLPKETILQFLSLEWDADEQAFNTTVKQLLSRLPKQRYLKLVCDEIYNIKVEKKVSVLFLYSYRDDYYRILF

SMILES | IC50 [nM]
COc1ncc(Cl)cc1S(=O)(=O)Nc1ccc(F)c(-c2ccc3c(-c4ccn[nH]4)ncn3c2F)c1F [Compound 105, 5-chloro-N-[2,4-difluoro-3-[5-fluoro-1-(2H-pyrazol-3-yl)imidazo[1,5-a]pyridin-6-yl]phenyl]-2-methoxypyridine-3-sulfonamide] | < 50
CNC(=O)c1ncn2cc(-c3c(F)ccc(NS(=O)(=O)c4cc(Cl)cnc4OC)c3Cl)ncc12 [Compound 106, 6-[2-chloro-3-(5-chloro-2-methoxypyridine-3-sulfonamido)-6-fluorophenyl]-N-methylimidazo[1,5-a]pyrazine-1-carboxamide] | < 50
COc1ncc(F)cc1S(=O)(=O)Nc1ccc(F)c(-c2ccc3c(-c4ncc[nH]4)ncn3c2F)c1F [Compound 107, N-[2,4-difluoro-3-[5-fluoro-1-(1H-imidazol-2-yl)imidazo[1,5-a]pyridin-6-yl]phenyl]-5-fluoro-2-methoxypyridine-3-sulfonamide] | < 50
Cc1ncc(F)cc1S(=O)(=O)Nc1ccc(F)c(-c2ccc3c(-c4ncc[nH]4)ncn3c2F)c1F [Compound 108, N-[2,4-difluoro-3-[5-fluoro-1-(1H-imidazol-2-yl)imidazo[1,5-a]pyridin-6-yl]phenyl]-5-fluoro-2-methylpyridine-3-sulfonamide] | < 50
Cc1ncc(Cl)cc1S(=O)(=O)Nc1ccc(F)c(-c2ccc3c(-c4ncc[nH]4)ncn3c2F)c1F [Compound 109, 5-chloro-N-[2,4-difluoro-3-[5-fluoro-1-(1H-imidazol-2-yl)imidazo[1,5-a]pyridine-6-yl]phenyl]-2-methylpyridine-3-sulfonamide] | < 50
COc1ncc(Cl)cc1S(=O)(=O)Nc1ccc(F)c(-c2cn3cnc(-c4nc5ccccc5[nH]4)c3cn2)c1F [Compound 110, N-[3-[1-(1H-1,3-benzodiazol-2-yl)imidazo[1,5-a]pyrazin-6-yl]-2,4-difluorophenyl]-5-chloro-2-methoxypyridine-3-sulfonamide] | < 50
COc1ncc(F)cc1S(=O)(=O)Nc1ccc(F)c(-c2cn3cnc(-c4nc5ccccc5[nH]4)c3cn2)c1F [Compound 111, N-[3-[1-(1H-1,3-benzodiazol-2-yl)imidazo[1,5-a]pyrazin-6-yl]-2,4-difluorophenyl]-5-fluoro-2-methoxypyridine-3-sulfonamide] | < 50
COc1ncc(C#N)cc1S(=O)(=O)Nc1ccc(F)c(-c2cn3cnc(-c4nc5ccccc5[nH]4)c3cn2)c1F [Compound 112, N-[3-[1-(1H-1,3-benzodiazol-2-yl)imidazo[1,5-a]pyrazin-6-yl]-2,4-difluorophenyl]-5-cyano-2-methoxypyridine-3-sulfonamide] | < 50
Cc1ncc(Cl)cc1S(=O)(=O)Nc1ccc(F)c(-c2cn3cnc(-c4nc5ccccc5[nH]4)c3cn2)c1F [Compound 113, N-[3-[1-(1H-1,3-benzodiazol-2-yl)imidazo[1,5-a]pyrazin-6-yl]-2,4-difluorophenyl]-5-chloro-2-methylpyridine-3-sulfonamide] | < 50
Cc1ncc(F)cc1S(=O)(=O)Nc1ccc(F)c(-c2cn3cnc(-c4nc5ccccc5[nH]4)c3cn2)c1F [Compound 114, N-[3-[1-(1H-1,3-benzodiazol-2-yl)imidazo[1,5-a]pyrazin-6-yl]-2,4-difluorophenyl]-5-fluoro-2-methylpyridine-3-sulfonamide] | < 50
COc1ncc(F)cc1S(=O)(=O)Nc1ccc(F)c(-c2ccc3c(-c4nc(Cl)c[nH]4)ncn3c2F)c1F [Compound 115, N-[3-[1-(4-chloro-1H-imidazol-2-yl)-5-fluoroimidazo[1,5-a]pyridin-6-yl]-2,4-difluorophenyl]-5-fluoro-2-methoxypyridine-3-sulfonamide] | < 50
COc1ncc(Cl)cc1S(=O)(=O)Nc1ccc(F)c(-c2ccc3c(-c4nc(Cl)c[nH]4)ncn3c2F)c1F [Compound 116, 5-chloro-N-[3-[1-(4-chloro-1H-imidazol-2-yl)-5-fluoroimidazo[1,5-a]pyridin-6-yl]-2,4-difluorophenyl]-2-methoxypyridine-3-sulfonamide] | < 50
